For eight compounds, mutagenic call results are on record in PubChem BioAssay AID1259407 (Chemical Carcinogenesis Research Information System (CCRIS), 2018).

The data set concerns CCRIS mutagenicity, Ames/micronucleus/aberration tests. The experiment in a line: CCRIS mutagenicity studies.
The mark [1] stands for this setting: Test System: AMES SALMONELLA TYPHIMURIUM, Strain/Indicator: TA98, Metabolic Activation: NONE, Method: PREINCUBATION
Setting [2] is: Test System: AMES SALMONELLA TYPHIMURIUM, Strain/Indicator: TA100, Metabolic Activation: NONE, Method: PREINCUBATION
Setting [3] is: Test System: AMES SALMONELLA TYPHIMURIUM, Strain/Indicator: TA98, Metabolic Activation: NONE, Method: STANDARD PLATE.
Where [4] appears, read: Test System: AMES SALMONELLA TYPHIMURIUM, Strain/Indicator: TA100, Metabolic Activation: NONE, Method: STANDARD PLATE.
The mark [5] stands for this setting: Test System: AMES SALMONELLA TYPHIMURIUM, Strain/Indicator: TA100, Metabolic Activation: RAT, LIVER, S-9, PCB, Method: PREINCUBATION

Each structure is given as a SMILES string. “Also recorded” adds a separate entry of the source. The source made the active and inactive calls. No rule for the calls is given here.

With `O=[N+]([O-])c1ccc2c3c1ccc1cccc(c13)[C@@H]1O[C@H]21`, the mutagenic call (Test System: AMES SALMONELLA TYPHIMURIUM, Strain/Indicator: TA98(1,8-DNP6), Metabolic Activation: RAT, LIVER, S-9, PHENOBARBITAL AND 5,6-BENZOFLAVONE, Method: PREINCUBATION) is “active; positive”; the mutagenic call (Test System: AMES SALMONELLA TYPHIMURIUM, Strain/Indicator: TA98(NR), Metabolic Activation: NONE, Method: PREINCUBATION) is “active; positive”; the mutagenic call under setting [1] is “active; positive”; the mutagenic call (Test System: AMES SALMONELLA TYPHIMURIUM, Strain/Indicator: TA98, Metabolic Activation: RAT, LIVER, S-9, PHENOBARBITAL AND 5,6-BENZOFLAVONE, Method: PREINCUBATION) is “active; positive”; the mutagenic call under setting [2] is “active; positive”; the mutagenic call (Test System: AMES SALMONELLA TYPHIMURIUM, Strain/Indicator: TA100, Metabolic Activation: RAT, LIVER, S-9, PHENOBARBITAL AND 5,6-BENZOFLAVONE, Method: PREINCUBATION) is “active; positive”. For the same compound, the mutagenic call is, setting by setting: (Test System: CHINESE HAMSTER OVARY, Strain/Indicator: CHO (HGPRT)/6-THIOGUANINE, Metabolic Activation: NONE, Method: STANDARD PLATE) “active; positive”; (Test System: CHINESE HAMSTER OVARY, Strain/Indicator: CHO (HGPRT)/6-THIOGUANINE, Metabolic Activation: RAT, LIVER, S-9, AROCLOR 1254, Method: STANDARD PLATE) “active; positive”; (Test System: UDS RODENT HEPATOCYTES, Strain/Indicator: THY INCORP, Metabolic Activation: NONE, Method: AUTORADIOGRAPHY) “active; positive”.
`CC(C)(Oc1ccc(C(=O)c2ccc(Cl)cc2)cc1)C(=O)O`: the mutagenic call under setting [3] is “inactive; negative”; the mutagenic call (Test System: AMES SALMONELLA TYPHIMURIUM, Strain/Indicator: TA98, Metabolic Activation: RAT, LIVER, S-9, PHENOBARBITAL AND 5,6-BENZOFLAVONE, Method: STANDARD PLATE) is “inactive; negative”; the mutagenic call under setting [4] is “inactive; negative”; the mutagenic call (Test System: AMES SALMONELLA TYPHIMURIUM, Strain/Indicator: TA100, Metabolic Activation: RAT, LIVER, S-9, PHENOBARBITAL AND 5,6-BENZOFLAVONE, Method: STANDARD PLATE) is “inactive; negative”; the mutagenic call (Test System: AMES SALMONELLA TYPHIMURIUM, Strain/Indicator: TA1535, Metabolic Activation: NONE, Method: STANDARD PLATE) is “inactive; negative”; the mutagenic call (Test System: AMES SALMONELLA TYPHIMURIUM, Strain/Indicator: TA1535, Metabolic Activation: RAT, LIVER, S-9, PHENOBARBITAL AND 5,6-BENZOFLAVONE, Method: STANDARD PLATE) was “inactive; negative”. In addition, the mutagenic call was “inactive; negative” (Test System: AMES SALMONELLA TYPHIMURIUM, Strain/Indicator: TA1537, Metabolic Activation: NONE, Method: STANDARD PLATE); “inactive; negative” (Test System: AMES SALMONELLA TYPHIMURIUM, Strain/Indicator: TA1537, Metabolic Activation: RAT, LIVER, S-9, PHENOBARBITAL AND 5,6-BENZOFLAVONE, Method: STANDARD PLATE); “inactive; negative” (Test System: E. COLI, Strain/Indicator: WP2 UVRA, Metabolic Activation: NONE, Method: STANDARD PLATE); “inactive; negative” (Test System: E. COLI, Strain/Indicator: WP2 UVRA, Metabolic Activation: RAT, LIVER, S-9, PHENOBARBITAL AND 5,6-BENZOFLAVONE, Method: STANDARD PLATE).
For `CC(C)(C)OC(=O)CN=[N+]=[N-]`, the mutagenic call under setting [5] is “active; positive”.
Consider `CC(C)(C)CC(C)(C)c1ccc(O)cc1`, for which the mutagenic call is “inactive; negative. toxic at 0.04 mg/ml; also recorded: inactive; negative. toxic at 0.030 and 0.036 mg/ml” (End Point: In vitro chromosomal aberrations, Test System: Chinese hamster lung (CHL/IU) cells, Metabolic Activation: None); “active; positive (structural changes and ploidy). toxic at 0.06 mg/ml” (End Point: In vitro chromosomal aberrations, Test System: Chinese hamster lung (CHL/IU) cells, Metabolic Activation: Rat, Liver, S9, Phenobarbital and 5,6-benzoflavone); “inactive; negative” under setting [1]; “inactive; negative” (Test System: AMES SALMONELLA TYPHIMURIUM, Strain/Indicator: TA98, Metabolic Activation: RAT LIVER S-9, PHENOBARBITAL AND BETA-NAPHTHOVLAVONE, Method: PREINCUBATION); “inactive; negative” under setting [2]; “inactive; negative” (Test System: AMES SALMONELLA TYPHIMURIUM, Strain/Indicator: TA100, Metabolic Activation: RAT LIVER S-9, PHENOBARBITAL AND BETA-NAPHTHOFLAVONE, Method: PREINCUBATION). Moreover, the mutagenic call is, setting by setting: (Test System: AMES SALMONELLA TYPHIMURIUM, Strain/Indicator: TA102, Metabolic Activation: NONE, Method: PREINCUBATION) “inactive; negative”; (Test System: AMES SALMONELLA TYPHIMURIUM, Strain/Indicator: TA102, Metabolic Activation: RAT LIVER S-9, PHENOBARBITAL AND BETA-NAPHTHOFLAVONE, Method: PREINCUBATION) “inactive; negative”; (Test System: AMES SALMONELLA TYPHIMURIUM, Strain/Indicator: TA104, Metabolic Activation: NONE, Method: PREINCUBATION) “inactive; negative”; (Test System: AMES SALMONELLA TYPHIMURIUM, Strain/Indicator: TA104, Metabolic Activation: RAT LIVER S-9, PHENOBARBITAL AND BETA-NAPHTHOFLAVONE, Method: PREINCUBATION) “inactive; negative”; (Test System: AMES SALMONELLA TYPHIMURIUM, Strain/Indicator: TA1535, Metabolic Activation: NONE, Method: PREINCUBATION) “inactive; negative”; (Test System: AMES SALMONELLA TYPHIMURIUM, Strain/Indicator: TA1535, Metabolic Activation: RAT LIVER S-9, PHENOBARBITAL AND BETA-NAPHTHOFLAVONE, Method: PREINCUBATION) “inactive; negative”. Also, the mutagenic call was “inactive; negative” (Test System: AMES SALMONELLA TYPHIMURIUM, Strain/Indicator: TA1537, Metabolic Activation: NONE, Method: PREINCUBATION); “inactive; negative” (Test System: AMES SALMONELLA TYPHIMURIUM, Strain/Indicator: TA1537, Metabolic Activation: RAT LIVER S-9, PHENOBARBITAL AND BETA-NAPHTHOFLAVONE, Method: PREINCUBATION); “inactive; negative” (Test System: E. COLI, Strain/Indicator: WP2UVRA/PKM101, Metabolic Activation: NONE, Method: PREINCUBATION); “inactive; negative” (Test System: E. COLI, Strain/Indicator: WP2UVRA/PKM101, Metabolic Activation: RAT LIVER S-9, PHENOBARBITAL AND BETA-NAPHTHOFLAVONE, Method: PREINCUBATION); “inactive; negative” (Test System: E. COLI, Strain/Indicator: WP2UVRA, Metabolic Activation: NONE, Method: PREINCUBATION); “inactive; negative” (Test System: E. COLI, Strain/Indicator: WP2UVRA, Metabolic Activation: RAT LIVER S-9, PHENOBARBITAL AND BETA-NAPHTHOFLAVONE, Method: PREINCUBATION).
As to `O=Cc1c(O)cc2c(c1O)C(=O)c1ccccc1C2=O`, the mutagenic call by setting is: under setting [1], “inactive; negative”; (Test System: AMES SALMONELLA TYPHIMURIUM, Strain/Indicator: TA98, Metabolic Activation: RAT, LIVER, S-9, PCB, Method: PREINCUBATION) “inactive; negative”; under setting [2], “inactive; negative”; under setting [5], “inactive; negative”.
As to `CCC(=O)N(O)c1ccc2ccccc2c1`, the mutagenic call was “inactive; negative” under setting [1]; “inactive; negative” (Test System: AMES SALMONELLA TYPHIMURIUM, Strain/Indicator: TA98, Metabolic Activation: RAT, LIVER, CYTOSOL, Method: PREINCUBATION); “active; positive” (Test System: AMES SALMONELLA TYPHIMURIUM, Strain/Indicator: TA98, Metabolic Activation: RAT, LIVER, MICROSOMES, Method: PREINCUBATION).
Turning to `COC(=O)C12C[C@@]1(C=O)C(C=O)=C[C@@H]1CC(C)(C)C[C@@H]12` (some centres undefined), the mutagenic call was “active; positive” under setting [3]; “active; positive” under setting [4]; “active; positive” (Test System: AMES SALMONELLA TYPHIMURIUM, Strain/Indicator: TA2637, Metabolic Activation: NONE, Method: STANDARD PLATE).
As to `CCCN(CCCO)N=O`, the mutagenic call (Test System: CHINESE HAMSTER V-79, Strain/Indicator: V-79/OUABAIN, Metabolic Activation: HAMSTER, HEPATOCYTES, Method: CELL-MEDIATED) was “inactive; negative”.
